For three compounds, IC50 results are on record in ChEMBL document CHEMBL3396975, “Structural development of stapled short helical peptides as vitamin D receptor (VDR)-coactivator interaction inhibitors” (Bioorg Med Chem, 2015).

Starred links: 1 amine or outer side, 2 acyl side, 3 side chain; linkers in the order of their positions; H or OH if unused. Positions of bridges follow the written chain, without caps; N, C: chain ends. Non-standard residues stand in square brackets, D forms with d. Residues, ends and D or L forms follow the SMILES beside them. *: point of attachment. X2 = O=C(C(CO)(CO)N[*:1])[*:2]; X1 = OC(C[*:1])C(O)C[*:2]; hSer = N[C@@H](CCO)C(=O)O; X3 = C(CC[*:2])C[*:1]; Aib = CC(C)(N)C(=O)O; Allyl = C=CC*

This assay deals with T1, Vitamin D3 receptor (Homo sapiens, UniProt P11473).
T1 sequence (P11473 whole entry): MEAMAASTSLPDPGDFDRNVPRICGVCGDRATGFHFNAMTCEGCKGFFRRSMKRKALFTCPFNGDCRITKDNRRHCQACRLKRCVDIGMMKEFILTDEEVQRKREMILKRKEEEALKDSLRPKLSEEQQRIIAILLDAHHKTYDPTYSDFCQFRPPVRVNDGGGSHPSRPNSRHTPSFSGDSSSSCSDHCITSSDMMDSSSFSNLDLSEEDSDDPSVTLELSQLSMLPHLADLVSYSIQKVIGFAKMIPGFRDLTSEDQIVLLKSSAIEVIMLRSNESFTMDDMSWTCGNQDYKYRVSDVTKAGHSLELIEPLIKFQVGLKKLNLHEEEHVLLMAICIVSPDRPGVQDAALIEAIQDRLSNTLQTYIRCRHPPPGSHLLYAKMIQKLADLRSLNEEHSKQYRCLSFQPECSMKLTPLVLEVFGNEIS
The assay is described as follows: Inhibition of human VDR-cofactor interaction by EnBio receptor cofactor assay system.
In turn, `CC(=O)N[C@@H](CC(C)C)C(=O)N[C@@H](CC(C)C)C(=O)N[C@H]1CCOCC(O)C(O)COCC[C@@H](C(N)=O)NC(=O)[C@H](CC(C)C)NC(=O)[C@H](CC(C)C)NC(=O)C(C)(C)NC1=O` (stereo partly drawn) (Ac-LL[hSer][Aib]LL[hSer]-NH2; linker 3-7 via X1) registered an IC50 of 67 µM.
As to `CC(=O)N[C@@H](CC(C)C)C(=O)N[C@@H](CC(C)C)C(=O)N[C@H]1CCOCCCCOCC[C@@H](C(N)=O)NC(=O)[C@H](CC(C)C)NC(=O)[C@H](CC(C)C)NC(=O)C(CO)(CO)NC1=O` (Ac-LL[hSer][X2]LL[hSer]-NH2; linker 3-7 via X3), the IC50 is 20 µM.
Compound `C=CCOCC[C@H](NC(=O)[C@H](CC(C)C)NC(=O)[C@H](CC(C)C)NC(=O)C(C)(C)NC(=O)[C@H](CCOCC=C)NC(=O)[C@H](CC(C)C)NC(=O)[C@@H](N)CC(C)C)C(=O)O` (H-LL[hSer](Allyl)[Aib]LL[hSer](Allyl)-OH) displayed an IC50 of 500 µM.

Usually IC50 stands for the concentration that gives 50% inhibition. High values mean lower potency, low ones higher potency.
